Source: patent US11230541B2, “Heterocyclic compound” (Takeda Pharmaceutical Company Limited, priority 2017, dated 2022)

Biological target: T1, NMDA receptor composed of four subunits including 2 sets of heterodimers of NR1 and NR2B (Homo sapiens, UniProt Q13224)
T1 construct: host or cells: HEK293 (tetracycline-induced expression)
Experiment: NR2B Ca2+ influx assay (FLIPR, Fluo-4) in HEK293 cells expressing human GRIN1 and GRIN2B
Type: cell-based
Settings: HEK293, 10 μM final compound concentration, glutamic acid/glycine-induced Ca2+ influx, read-out: inhibitory rate (10 μM compound concentration)
Excerpt: To confirm the “antagonistic action on an NMDA receptor containing the NR2B subunit” of the compound of the present invention, human embryonic kidney cell expressing the “NMDA receptor composed of four subunits including 2 sets of heterodimers of NR1 and NR2B”, specifically HEK293 cell expressing human glutamate ionotropic receptor NMDA type subunit 1 (GRIN1) and human glutamate ionotropic receptor NMDA type subunit 2B (GRIN2B), was used and the activation suppressive effect on the receptors was measured.
As an index of the NMDA receptor activation, intracellular calcium ion (Ca^2+) influx caused by the binding of glycine and glutamic acid with NR1 and NR2B, respectively, was used. HEK293 cells were purchased from ChanTest. The cells were cultured in a DMEM/F-12 (COSMO BIO, 10-092-CM) medium added with 10% FBS′(fetal bovine serum, AusGene), 100 units/mL penicillin, 100 μg/mL streptomycin, 500 μg/mL neomycin, 100 μg/mL Zeocin, 5 μg/mL Blasticidin at 37° C., 5% CO2. The cells were detached from flask with trypsin the day before the assay, suspended in a seeding medium (DMEM (Invitrogen, 31053) added with 10% FBS, 100 units/mL penicillin, 100 μg/mL streptomycin) at 8×10^5 cells/mL, seeded by 25 μL per well in a 384-well plate (Falcon, 356663) at 20000 cells/well, and cultured overnight in an incubator. On the day of the assay, tetracycline (Wako Pure Chemical Industries, Ltd., 209-16561) was diluted with the seeding medium at 2 μg/mL, added at […] to the plate seeded with the cells, and cultured for 2 hr in an incubator. Thereafter, the medium was removed, and the cells were washed with 50 μL/well assay buffer (137 mM NaCl, 4 mM KCl, 1.8 mM CaCl2, 10 mM HEPES (pH 7.2), 10 mM Glucose, 0.1% BSA). Then, a loading buffer (assay buffer added with 2.5 uM Fluo-4AM, 2 mM Amaranth, 1 mM Tartrazine) was added at 25 μL/well, and loading was performed in the incubator for 30 min, and at room temperature for 15 min. A solution (25 μL) of the Example compound diluted with the above-mentioned assay buffer at 30 μM (final concentration 10 μM) was added, and the cells were stood for 15 min at room temperature. Using FLIPR (Molecular Devices), 25 μL of an assay buffer containing 30 μM glutamic acid, 30 μM glycine was added, and the fluorescence signal was measured every 3 seconds for 5 min. The inhibitory activity was calculated as a relative activity value (inhibitory rate) that inhibits 100% of the cumulative value of the fluorescence value of a well added with a buffer free of glutamic acid, glycine, relative to the cumulative value of the fluorescence value of each well.

T1 sequence (Q13224 27-1484, other chains not shown): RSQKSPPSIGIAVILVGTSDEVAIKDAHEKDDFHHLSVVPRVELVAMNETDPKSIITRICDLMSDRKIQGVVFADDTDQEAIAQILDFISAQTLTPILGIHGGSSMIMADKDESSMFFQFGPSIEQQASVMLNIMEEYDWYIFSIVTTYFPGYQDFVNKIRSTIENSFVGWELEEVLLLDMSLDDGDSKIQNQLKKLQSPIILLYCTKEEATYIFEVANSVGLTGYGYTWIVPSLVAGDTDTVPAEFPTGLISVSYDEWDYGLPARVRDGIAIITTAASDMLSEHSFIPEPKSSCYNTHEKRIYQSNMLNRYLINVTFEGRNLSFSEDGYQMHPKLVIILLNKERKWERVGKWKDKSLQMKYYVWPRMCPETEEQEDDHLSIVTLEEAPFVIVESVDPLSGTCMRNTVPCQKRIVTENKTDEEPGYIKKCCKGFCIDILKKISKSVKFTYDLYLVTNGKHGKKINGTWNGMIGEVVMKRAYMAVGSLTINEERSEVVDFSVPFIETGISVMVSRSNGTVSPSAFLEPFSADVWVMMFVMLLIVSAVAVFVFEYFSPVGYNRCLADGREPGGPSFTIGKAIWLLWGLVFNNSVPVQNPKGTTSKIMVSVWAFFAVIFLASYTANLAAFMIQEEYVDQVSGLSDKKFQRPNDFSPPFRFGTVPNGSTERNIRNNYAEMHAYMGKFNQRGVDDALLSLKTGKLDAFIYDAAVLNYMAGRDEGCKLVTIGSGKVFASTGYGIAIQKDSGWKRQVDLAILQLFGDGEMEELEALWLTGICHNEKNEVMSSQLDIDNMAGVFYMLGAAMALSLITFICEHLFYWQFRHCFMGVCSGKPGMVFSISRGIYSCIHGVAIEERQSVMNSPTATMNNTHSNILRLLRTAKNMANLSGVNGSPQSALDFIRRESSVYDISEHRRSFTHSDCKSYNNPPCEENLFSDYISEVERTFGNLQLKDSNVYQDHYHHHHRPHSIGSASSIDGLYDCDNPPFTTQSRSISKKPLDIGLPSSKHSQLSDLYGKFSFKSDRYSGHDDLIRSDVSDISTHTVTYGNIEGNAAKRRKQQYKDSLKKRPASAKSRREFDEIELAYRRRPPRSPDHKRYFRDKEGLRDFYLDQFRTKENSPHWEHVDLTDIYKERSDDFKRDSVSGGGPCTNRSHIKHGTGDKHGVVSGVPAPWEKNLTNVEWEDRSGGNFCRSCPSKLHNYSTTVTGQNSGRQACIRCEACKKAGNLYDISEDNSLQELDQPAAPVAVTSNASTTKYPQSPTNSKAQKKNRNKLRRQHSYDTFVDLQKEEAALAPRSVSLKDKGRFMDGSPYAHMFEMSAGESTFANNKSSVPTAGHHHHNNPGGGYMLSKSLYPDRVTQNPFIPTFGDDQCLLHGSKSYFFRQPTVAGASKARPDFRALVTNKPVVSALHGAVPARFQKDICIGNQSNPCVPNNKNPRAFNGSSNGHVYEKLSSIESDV

SMILES | inhibition at 10 µM
Cc1ccc2nn(C)cc2c1CNC(=O)c1ccc(OC(F)(F)F)cc1 [Example 1, N-((2,5-dimethyl-2H-indazol-4-yl)methyl)-4-(trifluoromethoxy)benzamide] | 82%
Cc1ccc2[nH]ncc2c1CNC(=O)c1ccc(OC(F)(F)F)cc1 [Example 2, N-((5-methyl-1H-indazol-4-yl)methyl)-4-(trifluoromethoxy)benzamide] | 92%
Cc1ccc2[nH]cnc2c1CNC(=O)c1ccc(OC(F)(F)F)cc1 [Example 3, N-((5-methyl-1H-benzimidazol-4-yl)methyl)-4-(trifluoromethoxy)benzamide] | 97%
O=C(NCc1c(I)ccc2[nH]ncc12)c1ccc(OC(F)(F)F)cc1 [Example 4, N-((5-iodo-1H-indazol-4-yl)methyl)-4-(trifluoromethoxy)benzamide] | 87%
O=C(NCc1c(C(F)(F)F)ccc2[nH]ncc12)c1ccc(OC(F)(F)F)cc1 [Example 5, 4-(trifluoromethoxy)-N-((5-(trifluoromethyl)-1H-indazol-4-yl)methyl)benzamide] | 85%
COc1ccc2[nH]ncc2c1CNC(=O)c1ccc(OC(F)(F)F)cc1 [Example 6, N-((5-methoxy-1H-indazol-4-yl)methyl)-4-(trifluoromethoxy)benzamide] | 91%
O=C(NCc1cccc2[nH]ncc12)c1ccc(OC(F)(F)F)cc1 [Example 7, N-(1H-indazol-4-ylmethyl)-4-(trifluoromethoxy)benzamide] | 93%
COc1ccc2ncn(C)c2c1CNC(=O)c1cc(F)c(OC)c(F)c1 [Example 8, 3,5-Difluoro-4-methoxy-N-((6-methoxy-1-methyl-1H-benzimidazol-7-yl)methyl)benzamide] | 92%
COc1ccc2ncn(C)c2c1CNC(=O)c1cc(F)c(C)c(F)c1 [Example 9, 3,5-difluoro-N-((6-methoxy-1-methyl-1H-benzimidazol-7-yl)methyl)-4-methylbenzamide] | 92%
COc1ccc2ncn(C)c2c1CNC(=O)c1cnc(OC)c(F)c1 [Example 10, 5-fluoro-6-methoxy-N-((6-methoxy-1-methyl-1H-benzimidazol-7-yl)methyl)nicotinamide] | 92%
COc1ccc(C(=O)NCc2c(OC)ccc3ncn(C)c23)cc1F [Example 11, 3-fluoro-4-methoxy-N-((6-methoxy-1-methyl-1H-benzimidazol-7-yl)methyl)benzamide] | 92%
COc1ccc2ncn(C)c2c1CNC(=O)c1ccc(OC(F)(F)F)cc1 [Example 12, N-((6-methoxy-1-methyl-1H-benzimidazol-7-yl)methyl)-4-(trifluoromethoxy)benzamide] | 94%
COc1ccc2ncn(C)c2c1CNC(=O)c1ccc(C(F)(F)F)c(F)c1 [Example 13, 3-fluoro-N-((6-methoxy-1-methyl-1H-benzimidazol-7-yl)methyl)-4-(trifluoromethyl)benzamide] | 94%
COc1ccc2ncn(C)c2c1CNC(=O)c1ccc(C)c(F)c1 [Example 14, 3-fluoro-N-((6-methoxy-1-methyl-1H-benzimidazol-7-yl)methyl)-4-methylbenzamide] | 92%
COc1ccc2ncn(C)c2c1CNC(=O)c1cc(F)c(Cl)c(F)c1 [Example 15, 4-chloro-3,5-difluoro-N-((6-methoxy-1-methyl-1H-benzimidazol-7-yl)methyl)benzamide] | 95%
CCc1ccc2[nH]ncc2c1CNC(=O)c1cc(F)c(OC)c(F)c1 [Example 16, N-((5-ethyl-1H-indazol-4-yl)methyl)-3,5-difluoro-4-methoxybenzamide] | 94%
COc1c(F)cc(C(=O)NCc2c(C3CC3)ccc3[nH]ncc23)cc1F [Example 17, N-((5-cyclopropyl-1H-indazol-4-yl)methyl)-3,5-difluoro-4-methoxybenzamide] | 93%
COc1ccc2ncn(C)c2c1CNC(=O)c1cc(F)c(F)c(Cl)c1 [Example 18, 3-chloro-4,5-difluoro-N-((6-methoxy-1-methyl-1H-benzimidazol-7-yl)methyl)benzamide] | 87%

SMILES | inhibition at 10 µM
COc1ncc(C(=O)NCc2c(C)ccc3ncn(C)c23)cc1F [Example 19, N-((1,6-dimethyl-1H-benzimidazol-7-yl)-methyl)-5-fluoro-6-methoxynicotinamide] | 83%
COc1ncc(C(=O)NCc2c(C3CC3)ccc3ncn(C)c23)cc1F [Example 20, N-((6-cyclopropyl-1-methyl-1H-benzimidazol-7-yl)methyl)-5-fluoro-6-methoxynicotinamide] | 90%
COc1c(F)cc(C(=O)NCc2c(C3CC3)ccc3ncn(C)c23)cc1F [Example 21] | 91%
CCc1ccc2ncn(C)c2c1CNC(=O)c1cnc(OC)c(F)c1 [Example 22, N-((6-ethyl-1-methyl-1H-benzimidazol-7-yl)-methyl)-5-fluoro-6-methoxynicotinamide] | 90%
CCc1ccc2ncn(C)c2c1CNC(=O)c1cc(F)c(OC)c(F)c1 [Example 23, N-((6-ethyl-1-methyl-1H-benzimidazol-7-yl)-methyl)-3,5-difluoro-4-methoxybenzamide] | 93%
COc1ccc2ncn(C)c2c1CNC(=O)c1cc(F)c(C(F)(F)F)c(F)c1 [Example 24, 3,5-difluoro-N-((6-methoxy-1-methyl-1H-benzimidazol-7-yl)-methyl)-4-(trifluoro-methyl)benzaraide] | 90%
COc1c(F)cc(C(=O)NCc2c(C)ccc3ncn(C)c23)cc1F [Example 25, N-((1,6-dimethyl-1H-benzimidazol-7-yl)-methyl)-3,5-difluoro-4-methoxybenzamide] | 92%
Cc1ccc2ncn(C)c2c1CNC(=O)c1cc(F)c(C(F)(F)F)c(F)c1 [Example 26, N-((1,6-dimethyl-1H-benzimidazol-7-yl)-methyl)-3,5-difluoro-4-(trifluoromethyl)benzamide] | 66%
COc1ccc2ncn(C)c2c1CNC(=O)c1csc(C)c1 [Example 27, N-((6-methoxy-1-methyl-1H-benzimidazol-7-yl)-methyl)-5-methylthiophene-3-carboxamide] | 82%
COc1ccc2ncn(C)c2c1CNC(=O)c1csc(Cl)c1 [Example 28, 5-chloro-N-((6-methoxy-1-methyl-1H-benzimidazol-7-yl)nethyl)thiophene-3-carboxamide] | 90%
CCc1cc(C(=O)NCc2c(OC)ccc3ncn(C)c23)cs1 [Example 29] | 91%
Cc1ccc2ncn(C)c2c1CNC(=O)c1ccc(OC(F)(F)F)c(F)c1 [Example 30, N-((1,6-dimethyl-1H-benzimidazol-7-yl)-methyl)-3-fluoro-4-(trifluoromethoxy)-benzamide] | 90%
Cc1ccc2ncn(C)c2c1CNC(=O)c1ccc(OC(F)F)c(Cl)c1 [Example 31, 3-chloro-4-(difluoromethoxy)-N-((1,6-dimethyl-1H-benzimidazol-7-yl)methyl)benzamide] | 91%
COc1ccc2ncn(C)c2c1CNC(=O)c1ccc(C)s1 [Example 32, N-((6-methoxy-1-methyl-1H-benzimidazol-7-yl)methyl)-5-methylthiophene-2-carboxamide] | 77%
COc1ccc2ncn(C)c2c1CNC(=O)Cc1cccs1 [Example 33, N-((6-methoxy-1-methyl-1H-benzimidazol-7-yl)methyl)-2-(2-thienyl)acetamide] | 86%
COc1ccc(C(=O)NCc2c(OC)ccc3ncn(C)c23)cc1Cl [Example 34, 3-chloro-4-methoxy-N-((6-methoxy-1-methyl-1H-benzimidazol-7-yl)methyl)benzamide] | 89%
COc1ccc2ncn(C)c2c1CNC(=O)c1cc(C)c(OC)c(C)c1 [Example 35, 4-methoxy-N-((6-methoxyl-methyl-1H-benzimidazol-7-yl)methyl)-3,5-dimethylbenzamide] | 77%
COc1ccc2ncn(C)c2c1CNC(=O)c1ccc(Cl)s1 [Example 36, 5-chloro-N-((6-methoxy-1-methyl-1H-benzimidazol-7-yl)methyl)-thiophene-2-carboxamide] | 89%
